Measured values published in publication PMC7914775, “Molecules Present in Plant Essential Oils for Prevention and Treatment of Colorectal Cancer (CRC)” (Molecules, 2021).
pIC50: −log10 of the molar value. Where two headings read alike, the source gives them in different places.

How the values were obtained:
SW-620 cell line = assay: MTT cell viability assay, SW-620; conditions: for pIC50: SW-620, MTT
Description: Briefly, cells were firstly seeded, in triplicate, into 96-well culture plates at 10^4 cells/well. […] The final concentration of ethanol in the cell medium was kept lower than 0.1%. Ethanol 0.1% was added to the control (untreated) cells.
(§1) The cytotoxicity of the essential oil single components was evaluated by MTT assay on 96-well plates. After 24, 48 and 72 h, MTT (dissolved in PBS) was diluted with fresh medium at final concentration of 0.5 mg/mL, added to cell culture and incubated at 37 °C. After 4 h, the medium was removed and 100 μL of DMSO was added. After 1 h at room temperature, the purple formazan crystals were dissolved, and the plates were read in a microplate reader (Victor3™, Perkin Elmer, Waltham, MA, USA). Absorbance was measured at 595 nm. Cell growth inhibition rate was calculated as a percentage of treated cells on control ones.

NCM-460 cell line = assay: cells; conditions: for concentration affecting cell viability: NCM-460, after 24 h
Description: (§2) Briefly, cells were firstly seeded, in triplicate, into 96-well culture plates at 10^4 cells/well. […] Ethanol 99.5% was used to solubilize essential oils. The final concentration of ethanol in the cell medium was kept lower than 0.1%. Ethanol 0.1% was added to the control (untreated) cells.
as §1

Caco-2 cells [1] = conditions: viability of Caco-2 cells; cited from earlier work
Caco-2 cell line = assay: cells; set-up: effect on cell growth, MTT: dose or concentration left out as unconfirmed; conditions: for pIC50: Caco-2, MTT
Description: as §2, §1

NCM-460 cells [2] = assay: Cell cycle analysis (propidium iodide, flow cytometry), NCM-460; format: cell-based, human; conditions: NCM-460, 72 h; 75 µM cinnamaldehyde, 800 µM eugenol; vs control
Description: (§3) Cell cycle analysis and apoptosis detection assay were only performed in cell treated with cinnamaldehyde and eugenol, at dosages that were not found toxic on the NCM-460 cell line. Briefly, 100,000 cells were seeded into 6-well cultured plates and allowed to attach for 24 h. After that, cells were treated for 72 h as previously described. Then, the cells were collected for the cell cycle analysis, washed twice with PBS, fixed with 70% ethanol, and incubated at −20 °C overnight. Then, the cells were washed with 500 µL of PBS, centrifuged at 1500 rpm for 5 min, resuspended in 500 μL of PBS containing 50 μg/mL RNase A and incubated for 30 min at room temperature. Cells were then centrifuged at 1500 rpm for 5 min, resuspended in PBS, and 10 µg/mL of Propidium iodide was added. Detection of apoptotic cells was performed with Annexin V/Propidium iodide detection kit, following the manufacturer’s instructions (Bender Medsystems, Wien, Austria). Cells were analyzed by flow cytometry (FACS) (Cytoflex, Beckman Coulter, CA, USA).

Caco-2 cells [3] = assay: in vitro; format: cell-based, human; conditions: for cell death, Annexin V/PI: Caco-2, 72 h, 800 µM eugenol, 75 µM cinnamaldehyde
Description: as §3

NCM-460 cells [4] = assay: in vitro; format: cell-based, human; conditions: NCM-460, 72 h; 800 µM eugenol, 75 µM cinnamaldehyde
Description: as §3

SW-620 cells [5] = assay: in vitro; format: cell-based, human; conditions: for Q2-UL cells (upper left quadrant, necrosis): SW620, 72 h, eugenol 800 µM (E800), cinnamaldehyde 75 µM (A75); for cell death, Annexin V/PI: SW-620, 72 h, 800 µM eugenol, 75 µM cinnamaldehyde
Description: as §3

Caco-2 cells [6] = assay: Cell cycle analysis (propidium iodide, flow cytometry), Caco-2; format: cell-based, human; conditions: Caco-2, 72 h; 75 µM cinnamaldehyde, 800 µM eugenol; vs control
Description: as §3

SW-620 cells [7] = assay: Cell cycle analysis (propidium iodide, flow cytometry), SW-620; format: cell-based, human; conditions: SW-620, 72 h; 75 µM cinnamaldehyde, 800 µM eugenol; vs control
Description: as §3

in vitro = format: cell-based, human; conditions: human, eugenol 800 µM (E800), cinnamaldehyde 75 µM (A75), read-out: Q2-LL cells (lower left, viable, AnnexinV −/PI −)
Description: as §3

[8] = Homo sapiens, SW-620, 24 h, 24 h
[9] = Homo sapiens, SW-620, 72 h, 72 h
[10] = Homo sapiens, Caco-2, 24 h, 24 h
[11] = Homo sapiens, Caco-2, 72 h, 72 h
[12] = Caco2, 72 h, eugenol 800 µM (E800), cinnamaldehyde 75 µM (A75)

Structure (SMILES)	concentration affecting cell viability (NCM-460 cell line) [µM]	pIC50 (SW-620 cell line; [8])	pIC50 (SW-620 cell line; [9])	Selectivity Index (SW-620 cell line; IC50 NCM460 / IC50 SW620, 24 h)	Selectivity Index (SW-620 cell line; IC50 NCM460 / IC50 SW620, 72 h)	pIC50 (SW-620 cell line; 24 h)	pIC50 (SW-620 cell line; 72 h)	effect on cell cycle progression (NCM-460 cells [2])	cell death, Annexin V/PI (Caco-2 cells [3])	cell death, Annexin V/PI (NCM-460 cells [4])	Q2-UL cells (upper left quadrant, necrosis) (SW-620 cells [5]) [%]	cell death, Annexin V/PI (SW-620 cells [5])	effect on cell cycle progression (Caco-2 cells [6])	effect on cell cycle progression (SW-620 cells [7])	pIC50 (Caco-2 cell line; 24 h)	pIC50 (Caco-2 cell line; 72 h)	pIC50 (Caco-2 cell line; [10])	pIC50 (Caco-2 cell line; [11])	Selectivity Index (Caco-2 cell line; IC50 NCM460 / IC50 Caco2, 24 h)	Selectivity Index (Caco-2 cell line; IC50 NCM460 / IC50 Caco2, 72 h)	also measured
Cc1ccc(C(C)C)c(O)c1 [thymol]	165																				cytotoxic effect, MTT (SW-620 cell line; SW-620, 660 and 1320 µM): cytotoxic effect was also detectable; toxic concentration (SW-620 cell line; SW-620, after 24 h): 660 µM; pIC50 (Caco-2 cells [1]): 3.15
C=C1CC/C=C(\C)CC[C@@H]2[C@@H]1CC2(C)C [β-caryophyllene]																					effect on viability, MTT (SW-620 cell line; SW-620, 260 µM at 24, 48 and 72 h): affected the viability; effect on cell growth, MTT (Caco-2 cell line; Caco-2): increased cell growth; effect on viability, MTT (NCM-460 cell line; NCM-460, 240 and 360 µM at 24 h and 120–260 µM at 72 h): affected the viability
Cc1ccc(C(C)C)cc1O [carvacrol]	500																				toxicity, MTT (SW-620 cell line; SW-620, 24 and 48 h, up to the maximum tested concentration of 750 μM): no toxicity; cytotoxic effect, MTT (SW-620 cell line; SW-620, 250, 500 and 750 µM, only after 72 h): modest statistically significant toxicity; effect on viability, MTT (Caco-2 cell line; Caco-2, same range of concentrations used by Llana-Ruiz-Cabello and co-workers [19]): reduced Caco-2 cell viability
O=C/C=C/c1ccccc1 [cinnamaldehyde]		4.04	4.04	2.37	0.9	4.04	4.04	did not find differences	both late apoptosis and necrosis were detected	did not induce	15.98	both late apoptosis and necrosis were detected	reduction of G2 phase	G1 accumulation	3.78	4.06	3.78	4.06	1.31	0.96	effect on viability, MTT (SW-620 cell line; SW-620, 75 (µg/mL in the source), any timepoint): reduced viability; effect on viability, MTT (Caco-2 cell line; Caco-2, 75 (µg/mL in the source), 48 and 72 h): reduced viability; pIC50 (NCM-460 cell line; Homo sapiens, NCM460, 24 h, NCM-460, MTT, 24 h): 3.66; pIC50 (NCM-460 cell line; Homo sapiens, NCM460, 72 h, NCM-460, MTT, 72 h): 4.08; pIC50 (NCM-460 cell line; NCM-460, MTT, 24 h): 3.66; pIC50 (NCM-460 cell line; NCM-460, MTT, 72 h): 4.08
CC(C)=CCC/C(C)=C/CO [Geraniol]																					effect on cell proliferation, MTT (Caco-2 cell line; Caco-2, 100–800 µM, 72 h): increase cell proliferation; cytotoxic effect, MTT (Caco-2 cell line; human, 72 h, 1000 µM): not on the Caco-2 cells; effect on cell proliferation, MTT (NCM-460 cell line; NCM-460, 100–800 µM, 48–72 h): increase cell proliferation
C=CCc1ccc(O)c(OC)c1 [eugenol]		3.04	3.06	1.49	1.34	3.04	3.06	did not find differences	both late apoptosis and necrosis were detected	did not induce	17.12	both late apoptosis and necrosis were detected	reduction of G2 phase	G1 accumulation	3.31	3.14	3.34	3.14	2.82	1.60	Q2-UL cells (upper left quadrant, necrosis) (Caco-2 cells [3]; [12]): 25.95%; Q2-UR cells (upper right quadrant, late apoptosis) (Caco-2 cells [3]; [12]): 5.55%; viability at 72 h (in vitro; Caco2, 72 h): 67.5%; viability at 72 h (in vitro; NCM460, 72 h): 95.4%; viability at 72 h (in vitro; SW620, 72 h): 81.3%; effect on cell proliferation, MTT (Caco-2 cell line; Caco-2, lower doses from 100 to 400 µM): seemed to stimulate; pIC50 (NCM-460 cell line; Homo sapiens, NCM460, 24 h): 2.86; pIC50 (NCM-460 cell line; Homo sapiens, NCM460, 72 h): 2.94; effect on cell proliferation, MTT (NCM-460 cell line; NCM-460, lower doses from 100 to 400 µM): seemed to stimulate
